Like-named read-outs stand apart in the source and are kept apart here.
Tests used:
SU-DHL6 = experiment: Inhibition of tumor cell proliferation, CellTiter-Glo, SU-DHL6; assay type: cell-based; conditions: compound concentration 50 μM, 72 hours; for cell survival rate (% of control) at 50 µM: Homo sapiens, SU-DHL-6, read-out: Inhibitory activity against proliferation (cell survival rate) SU-DHL6
Procedure, shortened: (§1)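 Compound tested at 50 μM for 72 h, read by CellTiter-Glo. Survival rate = (treated−blank)/(control−blank) RLU ×100, binned as +++ ≤30%, ++ >30-≤60%, + 60-<90%. Seeding 2000-10000 cells/well depending on growth rate.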

RPMI-8226 = experiment: Inhibition of tumor cell proliferation, CellTiter-Glo, RPMI-8226; assay type: cell-based; conditions: compound concentration 50 μM, 72 hours; for cell survival rate (% of control) at 50 µM: Homo sapiens, RPMI-8226, read-out: Inhibitory activity against proliferation (cell survival rate) RPMI-8226
Procedure, shortened: as §1

K562 = experiment: Inhibition of tumor cell proliferation, CellTiter-Glo, K562; assay type: cell-based; conditions: compound concentration 50 μM, 72 hours; for cell survival rate (%) at 50 µM: Homo sapiens, K562, read-out: Inhibitory activity against proliferation (cell survival rate) K562
Procedure, shortened: as §1

A549 = experiment: Inhibition of tumor cell proliferation, CellTiter-Glo, A549; assay type: cell-based; conditions: compound concentration 50 μM, 72 hours; for cell survival rate (% of control) at 50 µM: Homo sapiens, A549, read-out: Inhibitory activity against proliferation (cell survival rate) A549
Procedure, shortened: as §1

MDA-MB-453 = experiment: Inhibition of tumor cell proliferation, CellTiter-Glo, MDA-MB-453; assay type: cell-based; conditions: compound concentration 50 μM, 72 hours; for cell survival rate (%) at 50 µM: Homo sapiens, MDA-MB-453, read-out: Inhibitory activity against proliferation (cell survival rate) MDA-MB-453
Procedure, shortened: as §1

BxPC-3 = experiment: Inhibition of tumor cell proliferation, CellTiter-Glo, BxPC-3; assay type: cell-based; conditions: compound concentration 50 μM, 72 hours; for cell survival rate (%) at 50 µM: Homo sapiens, BXPC-3, read-out: Inhibitory activity against proliferation (cell survival rate) BxPC-3
Procedure, shortened: as §1

LC3B = LC3B (Homo sapiens (Human), UniProt Q9GZQ8); experiment: Fluorescence polarization experiment targeting LC3B (GST-LC3B with FITC-labeled peptide)
[1] = GST-LC3B 180 nM, FITC-labeled peptide 18 nM, 25° C.

IC50 (LC3B)	Structure (SMILES)	Inhibitory activity against proliferation (cell survival rate) SU-DHL6 (SU-DHL6)	Inhibitory activity against proliferation (cell survival rate) RPMI-8226 (RPMI-8226)	Inhibitory activity against proliferation (cell survival rate) K562 (K562)	Inhibitory activity against proliferation (cell survival rate) A549 (A549)	Inhibitory activity against proliferation (cell survival rate) MDA-MB-453 (MDA-MB-453)	Inhibitory activity against proliferation (cell survival rate) BxPC-3 (BxPC-3)	IC50 (LC3B; [1])	cell survival rate (% of control) at 50 µM (SU-DHL6)	cell survival rate (% of control) at 50 µM (RPMI-8226)	cell survival rate (%) at 50 µM (K562)	cell survival rate (% of control) at 50 µM (A549)	cell survival rate (%) at 50 µM (MDA-MB-453)	cell survival rate (%) at 50 µM (BxPC-3)
–	O=C1CCC(N2Cc3c(NC=C4C(=O)CC(c5ccc(F)cc5)CC4=O)cccc3C2=O)C(=O)N1 (stereo not drawn) [Compound 19]	+ (60≤survival rate (%)<90)	++ (30<survival rate (%)≤60)	++ (30<survival rate (%)≤60)	+ (60≤survival rate (%)<90)	++ (30<survival rate (%)≤60)	++ (30<survival rate (%)≤60)	< 3 µM	–	–	–	–	–	–
–	O=C1CCC(N2Cc3c(NC=C4C(=O)CC(c5cc(O)ccc5Br)CC4=O)cccc3C2=O)C(=O)N1 (stereo not drawn) [Compound 148]	+++ (survival rate (%)≤30)	++ (30<survival rate (%)≤60)	++ (30<survival rate (%)≤60)	+++ (survival rate (%)≤30)	+++ (survival rate (%)≤30)	+ (60≤survival rate (%)<90)	< 3 µM	–	–	–	–	–	–
–	O=C1CCC(N2Cc3c(NC=C4C(=O)CC(c5c(F)c(Cl)cc(Cl)c5Cl)CC4=O)cccc3C2=O)C(=O)N1 (stereo not drawn) [Compound 154]	+++ (survival rate (%)≤30)	+++ (survival rate (%)≤30)	+++ (survival rate (%)≤30)	+ (60≤survival rate (%)<90)	+++ (survival rate (%)≤30)	+ (60≤survival rate (%)<90)	< 3 µM	–	–	–	–	–	–
–	O=C1CCC(N2Cc3c(NC=C4C(=O)CC(c5c(F)cccc5Cl)CC4=O)cccc3C2=O)C(=O)N1 (stereo not drawn) [Compound 147]	+++ (survival rate (%)≤30)	+++ (survival rate (%)≤30)	+++ (survival rate (%)≤30)	+++ (survival rate (%)≤30)	++ (30<survival rate (%)≤60)	++ (30<survival rate (%)≤60)	< 3 µM	–	–	–	–	–	–
–	O=C1CCC(N2C(=O)c3cccc(NC=C4C(=O)CC(c5cccc6[nH]cc(Cl)c56)CC4=O)c3C2=O)C(=O)N1 (stereo not drawn) [Compound 12]	+ (60≤survival rate (%)<90)	+ (60≤survival rate (%)<90)	+ (60≤survival rate (%)<90)	+ (60≤survival rate (%)<90)	+ (60≤survival rate (%)<90)	+ (60≤survival rate (%)<90)	< 3 µM	–	–	–	–	–	–
< 3 µM	CCOC(=O)C1C(=O)C(=CNc2cccc3c2CN(C2CCC(=O)NC2=O)C3=O)C(=O)CC1c1cccc2[nH]ccc12 (stereo not drawn) [Compound 25]	–	–	–	–	–	–	–	60 to 90%	60 to 90%	60 to 90%	60 to 90%	60 to 90%	60 to 90%
–	O=C1CCC(N2Cc3c(NC=C4C(=O)CC(c5ccc(C(F)(F)F)cc5)CC4=O)cccc3C2=O)C(=O)N1 (stereo not drawn) [Compound 21]	+ (60≤survival rate (%)<90)	+ (60≤survival rate (%)<90)	++ (30<survival rate (%)≤60)	++ (30<survival rate (%)≤60)	+ (60≤survival rate (%)<90)	+ (60≤survival rate (%)<90)	< 3 µM	–	–	–	–	–	–
–	O=C1CCC(N2Cc3c(NC=C4C(=O)CC(c5cccc6[nH]cc(C(F)(F)F)c56)CC4=O)cccc3C2=O)C(=O)N1 (stereo not drawn) [Compound 15]	++ (30<survival rate (%)≤60)	+++ (survival rate (%)≤30)	+ (60≤survival rate (%)<90)	+ (60≤survival rate (%)<90)	+ (60≤survival rate (%)<90)	++ (30<survival rate (%)≤60)	< 3 µM	–	–	–	–	–	–
–	O=C1CCC(N2Cc3c(NC(=O)c4ccc(NC=C5C(=O)CC(c6ccccc6)CC5=O)cc4)cccc3C2=O)C(=O)N1 (stereo not drawn) [Compound 50]	+++ (survival rate (%)≤30)	++ (30<survival rate (%)≤60)	+ (60≤survival rate (%)<90)	+ (60≤survival rate (%)<90)	+ (60≤survival rate (%)<90)	+ (60≤survival rate (%)<90)	15 to 100 µM	–	–	–	–	–	–
< 3 µM	CCOC(=O)C1C(=O)C(=CNc2cccc3c2C(=O)N(C2CCC(=O)NC2=O)C3=O)C(=O)CC1c1cccc2[nH]ccc12 (stereo not drawn) [Compound 26]	–	–	–	–	–	–	–	60 to 90%	60 to 90%	60 to 90%	60 to 90%	60 to 90%	60 to 90%
–	O=C1CCC(N2Cc3c(NC=C4C(=O)CC(c5c(Br)ccc6[nH]cc(C(F)(F)F)c56)CC4=O)cccc3C2=O)C(=O)N1 (stereo not drawn) [Compound 16]	+ (60≤survival rate (%)<90)	+++ (survival rate (%)≤30)	+ (60≤survival rate (%)<90)	+ (60≤survival rate (%)<90)	+ (60≤survival rate (%)<90)	+ (60≤survival rate (%)<90)	< 3 µM	–	–	–	–	–	–
–	O=C1CCC(N2Cc3c(NC=C4C(=O)CC(c5c(C(F)(F)F)ccc(Cl)c5Cl)CC4=O)cccc3C2=O)C(=O)N1 (stereo not drawn) [Compound 141]	+++ (survival rate (%)≤30)	++ (30<survival rate (%)≤60)	++ (30<survival rate (%)≤60)	+++ (survival rate (%)≤30)	+++ (survival rate (%)≤30)	+ (60≤survival rate (%)<90)	< 3 µM	–	–	–	–	–	–
–	O=C1CCC(N2Cc3c(NC=C4C(=O)CC(c5c[nH]c6cccc(F)c56)CC4=O)cccc3C2=O)C(=O)N1 (stereo not drawn) [Compound 41]	+ (60≤survival rate (%)<90)	+ (60≤survival rate (%)<90)	+++ (survival rate (%)≤30)	+++ (survival rate (%)≤30)	+ (60≤survival rate (%)<90)	+ (60≤survival rate (%)<90)	< 3 µM	–	–	–	–	–	–
–	COc1cc(Br)c(C2CC(=O)C(=CNc3cccc4c3CN(C3CCC(=O)NC3=O)C4=O)C(=O)C2)cc1OC (stereo not drawn) [Compound 143]	+++ (survival rate (%)≤30)	++ (30<survival rate (%)≤60)	++ (30<survival rate (%)≤60)	+++ (survival rate (%)≤30)	+++ (survival rate (%)≤30)	+ (60≤survival rate (%)<90)	< 3 µM	–	–	–	–	–	–
–	O=C1CCC(N2Cc3c(NC=C4C(=O)CC(c5ccc(Cl)cc5F)CC4=O)cccc3C2=O)C(=O)N1 (stereo not drawn) [Compound 145]	+++ (survival rate (%)≤30)	++ (30<survival rate (%)≤60)	++ (30<survival rate (%)≤60)	+++ (survival rate (%)≤30)	+++ (survival rate (%)≤30)	+ (60≤survival rate (%)<90)	< 3 µM	–	–	–	–	–	–

— patent US11021457B2, “Class of isoindolone-imide ring-1,3-dione-2-ene compounds, composition and use thereof” (WIGEN BIOMEDICINE TECHNOLOGY (SHANGHAI) CO., LTD., priority 2017, dated 2021)
